Data on four compounds can be found in publication PMC11226541 (Cancer Medicine, 2024).

Where two headings read alike, the source gives them in different places.

For series [1], the system named is patients with locally advanced and metastatic solid tumors. Kind of series: Dose-limiting toxicities, MTD and RP2D, dose-escalation stage (modified 3 + 3). Particulars: QD, with pamiparib 60 mg BID. It is filed as in vivo, human. The text has this:
AEs were coded using MedDRA v25.0 or higher.

Series [2] is described as follows: Pharmacokinetics of TMZ in plasma (combination with pamiparib). It counts as in vivo. Particulars: human, po, read-out: mean plasma concentration of TMZ 1 h after oral administration. The method, then:
(§1) PK of pamiparib and TMZ were assessed in blood samples collected at various timepoints following administration (pamiparib: ≤30 min before dosing, 1 h ± 15 min, 2 h ± 30 min, and 4 h ± 30 min after pamiparib dose on cycle 1 Day 1 and cycle 1 Day 15; TMZ: on cycle 1 Day 1 and Day 7 at ≤30 min before dosing and 1 h ± 15 min after TMZ dose). Parameters for pamiparib included the maximum observed plasma concentration (Cmax), lowest concentration reached before the next administered dose (Ctrough), half‐life (T1/2), and time to reach peak plasma concentration (Tmax). Biomarkers were analyzed in blood samples, processed into serum, plasma, and cell fractions for the analysis of germline mutations and circulating markers. Available archival or fresh tumor tissue samples were analyzed at a central laboratory. Tumor tissue was sent either as a formalin‐fixed, paraffin‐embedded block with tumor tissue (preferred) or as approximately 10 unstained slides.

Another series concerns recurrent glioblastoma. Set-up: method as in PMID 32347934. The conditions noted are these: combination with TMZ; cited from earlier work.
The nature of series [3]: Pharmacokinetics of pamiparib in plasma (combination with TMZ). It counts as in vivo, human. The conditions noted are these: for concentration at 2 h: read-out: geometric mean pamiparib concentration at 2 h post dose. On the procedure: as §1
In series [4] the test system is advanced or metastatic solid tumors. The conditions noted are these: cited from earlier work.
In series [5] the test system is BRCA1/2-mutated ovarian cancer. More on the design: method as in PMID 34844979. Particulars: monotherapy, cited from earlier work.
Series [6] relates to triple-negative breast cancer with germline BRCA1/2 mutations. More on the design: method as in PMID 36459284. Particulars: monotherapy, TNBC patients with germline BRCA1/2 mutations; cited from earlier work.
On the set-up of series [7]: method as in PMID 32652442. The conditions noted are these: cited from earlier work.
Another series concerns advanced malignancies. Set-up: method as in PMID 36136304. Particulars: combination with TMZ, related AEs; cited from earlier work.

As for `Cn1nnc2c(C(N)=O)ncn2c1=O` [TMZ, Temozolomide], the “RP2D of TMZ” value in series [1] (7-day pulsed) amounted to 60 mg. The “maximum tolerated dose of TMZ” value was found to be 60 mg in series [1] (7-day pulsed) and 20 mg in series [1] (continuous). Besides, the concentration at 1 h turned out to be 338 ng/mL in series [2] (cycle 1 Day 1, 20-mg dose) and 1510 ng/mL in series [2] (cycle 1 Day 1, 120-mg dose).
With `O=C(c1cc(Cc2n[nH]c(=O)c3ccccc23)ccc1F)N1CCN(C(=O)C2CC2)CC1` [olaparib], in the series on recurrent glioblastoma, the “Grade 3/4 neutropenia” value was 13% and the “Grade 3/4 thrombocytopenia” value was 25%.
With `C[C@]12CCCN1CC1=NNC(=O)c3cc(F)cc4[nH]c2c1c34` [pamiparib, Pamiparib], in [3] (combination with TMZ), the “geometric mean AUC0-4 at steady state relative to single-dose pamiparib administration” value is recorded as “approximately twice”. Moreover, the concentration at 2 h amounted to 1580 ng/mL in [3] (human, plasma, oral, cycle 1 Day 1, combination with TMZ) and 3480 ng/mL in [3] (human, plasma, oral, cycle 1 Day 15, combination with TMZ). Moreover, the AUC(0-t) in series [3] (human, plasma, oral, steady state with combination TMZ therapy (cycle 1 Day 15), pamiparib 60 mg BID, read-out: pamiparib geometric mean AUC0-4) turned out to be 11100 ng·h/mL. For the same compound, the Cmax (in general, the maximum level reached in the sampled fluid or tissue) in [3] (oral, pamiparib 60 mg BID with TMZ, human plasma, n/N 20/20, read-out: Cmax – mean (SD)) was 2010 ng/mL. Also, the Tmax (usually the time at which the peak concentration occurs) in series [3] (oral, pamiparib 60 mg BID with TMZ, human plasma, n/N 20/20, read-out: Tmax – mean (SD)) was 4 h. In [3] (pamiparib 60 mg BID with TMZ, steady state, cycle 1, day 15, human plasma, n/N 8/20), the “AUC0-4, SS – geometric mean” value is 11,119 h*ng/mL. Moreover, the “Ctrough, SS – mean (SD)” value in series [3] (pamiparib 60 mg BID with TMZ, steady state, cycle 1, day 15, human plasma, n/N 14/20) is 2,934 (2346) ng/mL. In addition, in series [4] (administered orally, BID), the RP2D of pamiparib is recorded as 60 mg. The ORR in [4] (monotherapy, advanced or metastatic solid tumors) is 27.3%; in series [5] (BRCA1/2-mutated platinum-resistant ovarian cancer), 31.6%; in series [5] (BRCA1/2-mutated platinum-sensitive ovarian cancer), 64.6%; in [6], 38.2%. Also, the brain penetration result in [7] (mice and rats) was “strong brain penetration”. In addition, the “drug exposure in the brain” value in series [7] (mice) is reported as “higher drug exposure in the brain compared with other PARP inhibitors”.
As for `Cn1ncnc1[C@H]1c2n[nH]c(=O)c3cc(F)cc(c23)N[C@@H]1c1ccc(F)cc1` [talazoparib], in the series with advanced malignancies, the “Grade 3/4 neutropenia” value is 28% and the “Grade 3/4 thrombocytopenia” value is given as 33%.
